Data: US6737383B1, “Herbicidal oxadiazolidines” (priority 1999, dated 2004)

Key:
duck salad = test: Test B flood test duck salad; assay type: in vivo, Heteranthera limosa
How it was run: (§1)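 Read-out is a visual response score from 0 (no effect) to 10 (complete control), assigned by comparison with untreated controls. Treatment was applied at the 2-leaf stage, and plants stayed in the greenhouse for twelve to sixteen days before scoring.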

smallflower flatsedge = test: Test B flood test smallflower flatsedge; assay type: in vivo, Cyperus difformis
How it was run: as §1

soybean = test: Test B pre/postemergence soybean; assay type: in vivo, Glycine max; conditions: for Plant response rating, Soybean: scale of 0 to 10 where 0 is no effect and 10 is complete control
How it was run: (§2)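 Response is a visual 0-to-10 score relative to untreated plants, where 0 means no effect and 10 means complete control, taken twelve to sixteen days after application. Treatments went onto soil at planting and onto foliage of 1- to 4-leaf plants, using a surfactant-containing non-phytotoxic solvent.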

cocklebur = test: Test B pre/postemergence cocklebur; assay type: in vivo, Xanthium strumarium
How it was run: as §2

giant foxtail = test: Test B pre/postemergence giant foxtail; assay type: in vivo, Setaria faberii
How it was run: as §2

wheat = test: Test B pre/postemergence wheat; assay type: in vivo, Triticum aestivum; conditions: for Plant response rating, Wheat: scale of 0 to 10 where 0 is no effect and 10 is complete control
How it was run: as §2

morningglory = test: Test B pre/postemergence morningglory; assay type: in vivo, Ipomoea hederacea; conditions: for Plant response rating, Morningglory: scale of 0 to 10 where 0 is no effect and 10 is complete control
How it was run: as §2

velvetleaf = test: Test B pre/postemergence velvetleaf; assay type: in vivo, Abutilon theophrasti; conditions: for Plant response rating, Velvetleaf: scale of 0 to 10 where 0 is no effect and 10 is complete control
How it was run: as §2

corn = test: Test B pre/postemergence corn; assay type: in vivo, Zea mays
How it was run: as §2

bedstraw = test: Test B pre/postemergence bedstraw; assay type: in vivo, Galium aparine; conditions: Postemergence
How it was run: as §2

wild oat = test: Test B pre/postemergence wild oat; assay type: in vivo, Avena fatua; conditions: for Plant response rating, Wild oats: scale of 0 to 10 where 0 is no effect and 10 is complete control
How it was run: as §2

surinam grass = test: Test B pre/postemergence surinam grass; assay type: in vivo, Brachiaria decumbens
How it was run: as §2

crabgrass = test: Test B pre/postemergence crabgrass; assay type: in vivo, Digitaria sanguinalis
How it was run: as §2

bamyardgrass = test: Test B flood test barnyardgrass; assay type: in vivo, Echinochloa crus-galli
How it was run: as §1

purple nutsedge = test: Test B pre/postemergence purple nutsedge; assay type: in vivo, Cyperus rotundus; conditions: for Plant response rating, Nutsedge: scale of 0 to 10 where 0 is no effect and 10 is complete control
How it was run: as §2

blackgrass = test: Test B pre/postemergence blackgrass; assay type: in vivo, Alopecurus myosuroides
How it was run: as §2

rice = test: Test B flood test rice; assay type: in vivo, Oryza sativa
How it was run: as §1

[1] = Rate 62 g/ha, flood test species, Pre-emergence, visual evaluation after twelve to sixteen days
[2] = Rate 125 g/ha, under heading Pre-emergence, flood test species, visual evaluation after twelve to sixteen days
[3] = Rate 250 g/ha, Pre-emergence (flood test species), scale 0 to 10, 0 is no effect, 10 is complete control
[4] = Rate 500 g/ha, Pre-emergence, flood test species, scale 0 to 10 (0 no effect, 10 complete control)
[5] = Postemergence, Rate 250 g/ha, scale 0 to 10
[6] = Preemergence, Rate 250 g/ha, scale 0 to 10, 0 is no effect, 10 is complete control
[7] = Preemergence, Rate 500 g/ha, scale 0 to 10, 0 is no effect, 10 is complete control
[8] = Rate 62 g/ha, Postemergence, scale 0 to 10 (0 no effect, 10 complete control)
[9] = Rate 125 g/ha, Postemergence, scale 0 to 10, 0 is no effect, 10 is complete control
[10] = Postemergence, Rate 500 g/ha, scale of 0 to 10 where 0 is no effect and 10 is complete control
[11] = Preemergence, Rate 62 g/ha, scale of 0 to 10 where 0 is no effect and 10 is complete control
[12] = Preemergence, Rate 125 g/ha, scale of 0 to 10 where 0 is no effect and 10 is complete control

CC(C)N(C(=O)n1oc(=O)n(C(C)C(=O)N(C)C)c1=O)c1ccc(Cl)cc1 (centres unmarked) [Compound 480]
6: B. signalgrass plant response rating (surinam grass; [10]) | Crabgrass plant response rating (crabgrass; [9])
7: Morningglory plant response rating (morningglory; [5]) | Wild oats plant response rating (wild oat; [7]) | B. signalgrass plant response rating (surinam grass; [6]) | Crabgrass plant response rating (crabgrass; [5]) | Plant response rating, Crabgrass (crabgrass; [11])
0: Plant response rating, Ducksalad (0 to 10 scale, 0 is no effect, 10 is complete control) (duck salad; [1]) | Ducksalad plant response rating (0 to 10 scale, 0 is no effect, 10 is complete control) (duck salad; [2]) | Ducksalad plant response rating (duck salad; [3]) | Ducksalad plant response rating (duck salad; [4]) | Plant response rating, S. Flatsedge (0 to 10 scale, 0 is no effect, 10 is complete control) (smallflower flatsedge; [1]) | S. Flatsedge plant response rating (0 to 10 scale, 0 is no effect, 10 is complete control) (smallflower flatsedge; [2]) | S. Flatsedge plant response rating (smallflower flatsedge; [3]) | S. Flatsedge plant response rating (smallflower flatsedge; [4]) | Plant response rating, Soybean (soybean; Preemergence, Rate 62 g/ha) | Plant response rating, Soybean (soybean; Preemergence, Rate 125 g/ha) | Soybean plant response rating (soybean; [6]) | Cocklebur plant response rating (cocklebur; [5]) | Plant response rating, Cocklebur (cocklebur; [11]) | Plant response rating, Cocklebur (cocklebur; [12]) | Cocklebur plant response rating (cocklebur; [6]) | Cocklebur plant response rating (cocklebur; [7]) | Cocklebur plant response rating (cocklebur; [8]) | Cocklebur plant response rating (cocklebur; [9]) | Wheat plant response rating (wheat; [5]) | Plant response rating, Wheat (wheat; Preemergence, Rate 62 g/ha) | Plant response rating, Wheat (wheat; Preemergence, Rate 125 g/ha) | Wheat plant response rating (wheat; [6]) | Wheat plant response rating (wheat; [8]) | Wheat plant response rating (wheat; [9]) | Plant response rating, Morningglory (morningglory; Preemergence, Rate 62 g/ha) | Plant response rating, Morningglory (morningglory; Preemergence, Rate 125 g/ha) | Morningglory plant response rating (morningglory; [6]) | Morningglory plant response rating (morningglory; [7]) | Velvetleaf plant response rating (velvetleaf; [5]) | Plant response rating, Velvetleaf (velvetleaf; Preemergence, Rate 62 g/ha) | Plant response rating, Velvetleaf (velvetleaf; Preemergence, Rate 125 g/ha) | Velvetleaf plant response rating (velvetleaf; [6]) | Velvetleaf plant response rating (velvetleaf; [7]) | Velvetleaf plant response rating (velvetleaf; [8]) | Velvetleaf plant response rating (velvetleaf; [9]) | Corn plant response rating (corn; [5]) | Plant response rating, Corn (corn; [11]) | Plant response rating, Corn (corn; [12]) | Corn plant response rating (corn; [6]) | Corn plant response rating (corn; [8]) | Corn plant response rating (corn; [9]) | Bedstraw plant response rating (bedstraw; Rate 250 g/ha, scale 0 to 10) | Bedstraw plant response rating (bedstraw; Rate 500 g/ha, scale of 0 to 10 where 0 is no effect and 10 is complete control) | Bedstraw plant response rating (bedstraw; Rate 62 g/ha, scale 0 to 10 (0 no effect, 10 complete control)) | Bedstraw plant response rating (bedstraw; Rate 125 g/ha, scale 0 to 10, 0 is no effect, 10 is complete control) | Wild oats plant response rating (wild oat; [5]) | Plant response rating, Wild oats (wild oat; Preemergence, Rate 62 g/ha) | Wild oats plant response rating (wild oat; [8]) | Wild oats plant response rating (wild oat; [9]) | Plant response rating, B. signalgrass (surinam grass; [11]) | B. signalgrass plant response rating (surinam grass; [8]) | Plant response rating, Barnyardgrass (0 to 10 scale, 0 is no effect, 10 is complete control) (bamyardgrass; [1]) | Barnyardgrass plant response rating (0 to 10 scale, 0 is no effect, 10 is complete control) (bamyardgrass; [2]) | Barnyardgrass plant response rating (bamyardgrass; [3]) | Barnyardgrass plant response rating (bamyardgrass; [4]) | Nutsedge plant response rating (purple nutsedge; [5]) | Plant response rating, Nutsedge (purple nutsedge; Preemergence, Rate 62 g/ha) | Plant response rating, Nutsedge (purple nutsedge; Preemergence, Rate 125 g/ha) | Nutsedge plant response rating (purple nutsedge; [6]) | Nutsedge plant response rating (purple nutsedge; [7]) | Nutsedge plant response rating (purple nutsedge; [8]) | Nutsedge plant response rating (purple nutsedge; [9]) | Blackgrass plant response rating (blackgrass; [8]) | Plant response rating, Rice (0 to 10 scale, 0 is no effect, 10 is complete control) (rice; [1]) | Rice plant response rating (0 to 10 scale, 0 is no effect, 10 is complete control) (rice; [2]) | Rice plant response rating (rice; [3]) | Rice plant response rating (rice; [4])
8: Giant foxtail plant response rating (giant foxtail; [5]) | Giant foxtail plant response rating (giant foxtail; [10]) | Crabgrass plant response rating (crabgrass; [10]) | Plant response rating, Crabgrass (crabgrass; [12]) | Crabgrass plant response rating (crabgrass; [6]) | Blackgrass plant response rating (blackgrass; [10]) | Blackgrass plant response rating (blackgrass; [6])
9: B. signalgrass plant response rating (surinam grass; [7]) | Blackgrass plant response rating (blackgrass; [7])
2: Soybean plant response rating (soybean; [8]) | Wheat plant response rating (wheat; [7]) | Morningglory plant response rating (morningglory; [8]) | Corn plant response rating (corn; [10]) | Plant response rating, Wild oats (wild oat; Preemergence, Rate 125 g/ha) | Crabgrass plant response rating (crabgrass; [8])
3: Soybean plant response rating (soybean; [5]) | Soybean plant response rating (soybean; [9]) | Giant foxtail plant response rating (giant foxtail; [8]) | Corn plant response rating (corn; [7]) | B. signalgrass plant response rating (surinam grass; [9]) | Blackgrass plant response rating (blackgrass; [5]) | Plant response rating, Blackgrass (blackgrass; [11]) | Blackgrass plant response rating (blackgrass; [9])
10: Plant response rating, Giant foxtail (giant foxtail; [11]) | Plant response rating, Giant foxtail (giant foxtail; [12]) | Giant foxtail plant response rating (giant foxtail; [6]) | Giant foxtail plant response rating (giant foxtail; [7]) | Crabgrass plant response rating (crabgrass; [7])
5: Giant foxtail plant response rating (giant foxtail; [9]) | B. signalgrass plant response rating (surinam grass; Postemergence, Rate 250 g/ha, scale 0 to 10, 0 no effect, 10 complete control) | Plant response rating, Blackgrass (blackgrass; [12])
4: Morningglory plant response rating (morningglory; [9]) | Wild oats plant response rating (wild oat; [6]) | Plant response rating, B. signalgrass (surinam grass; [12])
1: Soybean plant response rating (soybean; [7]) | Cocklebur plant response rating (cocklebur; [10])
